# Source: ChEMBL document CHEMBL3576790, “Novel Small Molecule Inhibitors of Activated Thrombin Activatable Fibrinolysis Inhibitor (TAFIa) from Natural Product Anabaenopeptin” (J Med Chem, 2015)
# *1 amine or outer side, *2 acyl side, *3 side chain or, on linkers, in order; H or OH if unused. Where a SMILES comes first, the peptide text is derived from it. Bridges are numbered along the chain shown (N, C = ends). [ ]: non-standard residue; d: D form. hTyr = N[C@@H](CCc1ccc(O)cc1)C(=O)O; NMeA = CN[C@@H](C)C(=O)O; CO = O=C([*:1])[*:2]
# Legend:
# [1] = biological target: T1, Coagulation factor VII (Homo sapiens, UniProt P08709); experiment: Inhibition of factor7a (unknown origin)
# T1 sequence (P08709 whole entry): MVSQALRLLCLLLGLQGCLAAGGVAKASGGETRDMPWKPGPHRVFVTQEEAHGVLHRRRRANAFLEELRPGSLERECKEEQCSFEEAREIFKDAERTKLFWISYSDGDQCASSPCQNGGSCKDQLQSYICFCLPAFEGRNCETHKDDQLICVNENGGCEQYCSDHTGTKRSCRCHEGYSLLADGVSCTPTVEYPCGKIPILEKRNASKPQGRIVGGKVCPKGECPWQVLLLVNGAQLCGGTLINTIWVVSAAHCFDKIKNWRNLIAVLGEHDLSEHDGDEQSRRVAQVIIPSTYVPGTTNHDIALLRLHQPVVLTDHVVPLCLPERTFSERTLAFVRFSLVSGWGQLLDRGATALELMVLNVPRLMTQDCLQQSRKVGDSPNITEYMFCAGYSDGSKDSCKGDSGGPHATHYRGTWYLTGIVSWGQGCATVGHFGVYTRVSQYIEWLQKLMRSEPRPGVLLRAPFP
# [2] = biological target: Prothrombin (Homo sapiens, UniProt P00734); experiment: Inhibition of factor2a (unknown origin)
# [3] = biological target: Coagulation factor X (Homo sapiens, UniProt P00742); experiment: Inhibition of factor10a (unknown origin)
# Sequence of Coagulation factor X (P00742 41-179 limits assumed): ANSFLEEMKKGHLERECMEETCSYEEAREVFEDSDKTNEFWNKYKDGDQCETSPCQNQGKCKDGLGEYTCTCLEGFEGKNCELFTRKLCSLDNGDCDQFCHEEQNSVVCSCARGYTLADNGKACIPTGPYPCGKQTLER
# Sequence of Coagulation factor X (P00742 235-488 limits assumed): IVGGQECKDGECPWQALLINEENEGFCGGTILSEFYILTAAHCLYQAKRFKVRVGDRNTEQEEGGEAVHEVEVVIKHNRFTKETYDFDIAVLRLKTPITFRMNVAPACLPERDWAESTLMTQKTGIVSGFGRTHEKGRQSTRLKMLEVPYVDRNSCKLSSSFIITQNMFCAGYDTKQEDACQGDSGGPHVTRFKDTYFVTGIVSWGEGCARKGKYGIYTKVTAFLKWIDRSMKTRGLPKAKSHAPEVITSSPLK
# [4] = biological target: Coagulation factor XI (Homo sapiens, UniProt P03951); experiment: Inhibition of factor11a (unknown origin)
# Sequence of Coagulation factor XI (P03951 19-387 limits assumed): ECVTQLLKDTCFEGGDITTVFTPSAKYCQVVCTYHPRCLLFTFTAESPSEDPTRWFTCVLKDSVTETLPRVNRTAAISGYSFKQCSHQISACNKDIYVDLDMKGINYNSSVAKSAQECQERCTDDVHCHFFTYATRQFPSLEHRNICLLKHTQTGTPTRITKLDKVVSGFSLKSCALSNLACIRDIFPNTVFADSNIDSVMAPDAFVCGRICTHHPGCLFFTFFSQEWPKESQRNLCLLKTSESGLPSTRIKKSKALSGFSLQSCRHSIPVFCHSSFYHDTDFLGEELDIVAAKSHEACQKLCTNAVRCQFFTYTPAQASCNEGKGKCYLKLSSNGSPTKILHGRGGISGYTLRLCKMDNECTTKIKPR
# Sequence of Coagulation factor XI (P03951 388-625 limits assumed): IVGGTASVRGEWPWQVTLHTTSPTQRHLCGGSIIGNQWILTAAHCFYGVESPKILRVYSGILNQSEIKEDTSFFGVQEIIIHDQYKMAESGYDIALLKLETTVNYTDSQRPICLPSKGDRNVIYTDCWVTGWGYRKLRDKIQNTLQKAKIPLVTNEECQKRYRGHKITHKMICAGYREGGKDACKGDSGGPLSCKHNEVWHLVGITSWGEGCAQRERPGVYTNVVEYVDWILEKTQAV
# [5] = biological target: T2, Carboxypeptidase B2 (Homo sapiens, UniProt Q96IY4)
# T2 sequence (Q96IY4 whole entry): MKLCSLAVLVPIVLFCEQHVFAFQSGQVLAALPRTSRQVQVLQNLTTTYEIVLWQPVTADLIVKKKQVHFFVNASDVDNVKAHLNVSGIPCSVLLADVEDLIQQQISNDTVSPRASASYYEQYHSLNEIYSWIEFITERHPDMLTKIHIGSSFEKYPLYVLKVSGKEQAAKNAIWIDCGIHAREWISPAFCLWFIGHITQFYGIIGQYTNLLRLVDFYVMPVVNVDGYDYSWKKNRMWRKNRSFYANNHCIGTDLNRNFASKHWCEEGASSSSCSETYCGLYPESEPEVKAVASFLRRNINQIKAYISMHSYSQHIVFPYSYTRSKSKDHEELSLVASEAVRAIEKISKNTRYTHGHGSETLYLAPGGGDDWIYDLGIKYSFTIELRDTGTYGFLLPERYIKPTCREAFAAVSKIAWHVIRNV
# Description: Inhibition of human activated TAFI incubated for 15 mins by microtiter plate reader based assay
# [6] = biological target: T3, Carboxypeptidase A1 (Homo sapiens, UniProt P15085); experiment: Inhibition of CPA (unknown origin)
# T3 sequence (P15085 whole entry): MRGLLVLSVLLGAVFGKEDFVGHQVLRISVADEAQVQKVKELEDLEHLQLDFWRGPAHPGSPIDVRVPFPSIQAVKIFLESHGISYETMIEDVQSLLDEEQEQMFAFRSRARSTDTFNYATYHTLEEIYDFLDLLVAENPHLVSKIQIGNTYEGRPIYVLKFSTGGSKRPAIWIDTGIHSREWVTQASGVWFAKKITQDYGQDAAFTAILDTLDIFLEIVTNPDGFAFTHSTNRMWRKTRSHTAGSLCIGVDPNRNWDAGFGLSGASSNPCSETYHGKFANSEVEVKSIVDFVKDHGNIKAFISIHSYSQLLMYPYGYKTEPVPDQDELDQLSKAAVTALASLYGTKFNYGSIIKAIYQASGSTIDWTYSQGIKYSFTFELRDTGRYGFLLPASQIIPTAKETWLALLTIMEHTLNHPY
# [7] = biological target: T4, Carboxypeptidase N catalytic chain (Homo sapiens, UniProt P15169); experiment: Inhibition of CPN (unknown origin)
# T4 sequence (P15169 whole entry): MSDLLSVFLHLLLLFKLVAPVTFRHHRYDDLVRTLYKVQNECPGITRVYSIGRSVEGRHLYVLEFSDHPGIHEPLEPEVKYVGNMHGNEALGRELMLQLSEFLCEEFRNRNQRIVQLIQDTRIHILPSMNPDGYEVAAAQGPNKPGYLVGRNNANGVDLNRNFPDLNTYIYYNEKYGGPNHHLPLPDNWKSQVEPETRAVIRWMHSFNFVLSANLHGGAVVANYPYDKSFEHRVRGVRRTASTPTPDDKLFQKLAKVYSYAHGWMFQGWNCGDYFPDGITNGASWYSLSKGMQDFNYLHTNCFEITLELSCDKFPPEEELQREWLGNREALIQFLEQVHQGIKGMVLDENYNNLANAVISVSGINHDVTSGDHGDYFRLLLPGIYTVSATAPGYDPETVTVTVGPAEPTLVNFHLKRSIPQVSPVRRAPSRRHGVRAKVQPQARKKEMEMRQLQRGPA
smiles,measurement,setting,value
CC[C@H](C)[C@@H]1NC(=O)[C@H](NC(=O)N[C@@H](CCCNC(=N)N)C(=O)O)CCCCNC(=O)[C@H](Cc2ccccc2)NC(=O)[C@H](C)N(C)C(=O)[C@H](CCc2ccc(O)cc2)NC1=O [ANABAENOPEPTIN F] ({Arg-CO}-[dK]I[hTyr][NMeA]F; lactam 1-C),IC50,[1],35 µM
same,IC50,[2],0.35 µM
same,IC50,[3],38 µM
same,IC50,[4],3.9 µM
CC12CCC(C(NC(=O)[C@@H](CC3CCCCC3)NC(=O)N[C@H](Cc3ccc(N)nc3)C(=O)O)C1)C2(C)C (stereo partly specified),IC50,[5],0.25 µM
CC12CCC(C(NC(=O)[C@@H](CC3CCCCC3)NC(=O)N[C@H](C#N)Cc3ccc(N)nc3)C1)C2(C)C (stereo partly specified),IC50,[5],54 µM
CCC[C@@H](NC(=O)N[C@@H](CCCCN)C(=O)O)C(=O)NC1CC2(C)CCC1C2(C)C (stereo partly specified),IC50,[5],0.015 µM
CC(C)(NC(=O)N[C@@H](CCCCN)C(=O)O)C(=O)NC1CC2(C)CCC1C2(C)C (stereo partly specified),IC50,[5],6.1 µM
CC(C)[C@@H]1NC(=O)[C@H](NC(=O)N[C@@H](CCCNC(=N)N)C(=O)O)CCCCNC(=O)[C@H](Cc2ccccc2)NC(=O)[C@H](C)N(C)C(=O)[C@H](CCc2ccc(O)cc2)NC1=O [ANABAENOPEPTIN B] ({Arg-CO}-[dK]V[hTyr][NMeA]F; lactam 1-C),IC50,[1],> 100 µM
same,IC50,[2],1.6 µM
same,IC50,[3],> 100 µM
same,IC50,[4],24 µM
CC12CCC(C(NC(=O)[C@H](NC(=O)N[C@@H](CCCCN)C(=O)O)C3CCCCC3)C1)C2(C)C (stereo partly specified),IC50,[5],1 µM
NCCCC[C@H](NC(=O)N[C@H](CC1CCCCC1)C(=O)NCC(c1ccccc1)c1ccccc1)C(=O)O,IC50,[5],0.12 µM
CC12CCC(C(NC(=O)[C@@H](CC3CCCCC3)NC(=O)N[C@@H](CS(=O)(=O)CCN)C(=O)O)C1)C2(C)C (stereo partly specified),IC50,[5],0.038 µM
CC12CCC(C(NC(=O)[C@@H](CC3CCCCC3)NC(=O)N[C@@H](Cc3ccc(N)nc3)C(=O)O)C1)C2(C)C (stereo partly specified),IC50,[5],0.001 µM
CC12CCC(C(NC(=O)[C@@H](CC3CCCCC3)NC(=O)N[C@@H](Cc3ccc(N)nc3)C(N)=O)C1)C2(C)C (stereo partly specified),IC50,[5],0.57 µM
"CC(C)C[C@@H](NC(=O)N[C@@H](CCCCN)C(=O)O)C(=O)NC1CC2(C)CCC1C2(C)C (single isomer, unassigned; (+))",IC50,[5],0.057 µM
CC(C)[C@@H]1NC(=O)[C@H](NC(=O)N[C@@H](CCCCN)C(=O)O)CCCCNC(=O)[C@H](Cc2ccccc2)NC(=O)[C@H](C)N(C)C(=O)[C@H](CCc2ccc(O)cc2)NC1=O,IC50,[6],> 100 µM
same,IC50,[1],> 100 µM
same,IC50,[7],5.7 µM
same,IC50,[2],6 µM
same,IC50,[3],> 100 µM
same,IC50,[4],12 µM
"CC12CCC(C(NC(=O)[C@@H](Cc3ccccc3)NC(=O)N[C@@H](CCCCN)C(=O)O)C1)C2(C)C (single isomer, unassigned; (+))",IC50,[5],0.015 µM
CC(C)CCNC(=O)[C@@H](CCCCNC(=O)OCc1ccccc1)NC(=O)N[C@@H](CCCCN)C(=O)O,IC50,[5],1.4 µM
